Results as given in ChEMBL document CHEMBL1142627, “Ribofuranosyl triazolone: a natural product herbicide with activity on adenylosuccinate synthetase following phosphorylation” (J Nat Prod, 2000).
Calls of active or inactive are those of the source. The calls are words filed in the database; no cut-off is given here.

What was measured:
Oryctolagus cuniculus = organism: Oryctolagus cuniculus; assay: (§1) Inhibition of rabbit muscle Adenylosuccinate synthase assessed as adenylosuccinate formation
[1] = as §1; set-up: species or system Oryctolagus cuniculus; conditions: read-out: I50
[2] = (§2) Inhibition of Zea mays BMS cells Adenylosuccinate synthase assessed as adenylosuccinate formation; type: cell-based; conditions: read-out: I50
Avena fatua [3] = assay: Phytotoxicity against Avena fatua assessed as visual injury at 0.5 kg/ha growth rate treated pre-emergence by greenhouse test; type: functional
Ipomoea hederacea [4] = assay: Phytotoxicity against Ipomoea hederacea assessed as visual injury at 1.0 kg/ha growth rate treated pre-emergence by greenhouse test; type: functional
Alopecurus myosuroides [5] = assay: Phytotoxicity against Alopecurus myosuroides assessed as visual injury at 0.5 kg/ha growth rate treated post-emergence by greenhouse test; type: functional
Ipomoea hederacea [6] = assay: Phytotoxicity against Ipomoea hederacea assessed as visual injury at 4.0 kg/ha growth rate treated pre-emergence by greenhouse test; type: functional
Avena fatua [7] = assay: Phytotoxicity against Avena fatua assessed as visual injury at 1.0 kg/ha growth rate treated pre-emergence by greenhouse test; type: functional
Abutilon theophrasti [8] = assay: Phytotoxicity against Abutilon theophrasti assessed as visual injury at 0.5 kg/ha growth rate treated post-emergence by greenhouse test; type: functional
Arabidopsis thaliana [9] = assay: Metabolite reversal in Arabidopsis thaliana assessed as root growth inhibition in presence of adenine and guanine; type: functional, organism-based
Amaranthus retroflexus [10] = assay: Phytotoxicity against Amaranthus retroflexus assessed as visual injury at 1.0 kg/ha growth rate treated post-emergence by greenhouse test; type: functional
Amaranthus retroflexus [11] = assay: Phytotoxicity against Amaranthus retroflexus assessed as visual injury at 1.0 kg/ha growth rate treated pre-emergence by greenhouse test; type: functional
Amaranthus retroflexus [12] = assay: Phytotoxicity against Amaranthus retroflexus assessed as visual injury at 2.0 kg/ha growth rate treated pre-emergence by greenhouse test; type: functional
Abutilon theophrasti [13] = assay: Phytotoxicity against Abutilon theophrasti assessed as visual injury at 2.0 kg/ha growth rate treated post-emergence by greenhouse test; type: functional
Helianthus annuus [14] = assay: Phytotoxicity against Helianthus annuus assessed as visual injury at 1.0 kg/ha growth rate treated post-emergence by greenhouse test; type: functional
Setaria faberi [15] = assay: Phytotoxicity against Setaria faberi assessed as visual injury at 1.0 kg/ha growth rate treated pre-emergence by greenhouse test; type: functional
Helianthus annuus [16] = assay: Phytotoxicity against Helianthus annuus assessed as visual injury at 1.0 kg/ha growth rate treated pre-emergence by greenhouse test; type: functional
Echinochloa crus-galli [17] = assay: Phytotoxicity against Echinochloa crusgalli assessed as visual injury at 0.5 kg/ha growth rate treated post-emergence by greenhouse test; type: functional
Arabidopsis thaliana [18] = assay: Inhibition of Arabidopsis thaliana root growth; type: functional, organism-based
Ipomoea hederacea [19] = assay: Phytotoxicity against Ipomoea hederacea assessed as visual injury at 2.0 kg/ha growth rate treated pre-emergence by greenhouse test; type: functional
Amaranthus retroflexus [20] = assay: Phytotoxicity against Amaranthus retroflexus assessed as visual injury at 4.0 kg/ha growth rate treated post-emergence by greenhouse test; type: functional
Amaranthus retroflexus [21] = assay: Phytotoxicity against Amaranthus retroflexus assessed as visual injury at 2.0 kg/ha growth rate treated post-emergence by greenhouse test; type: functional
Abutilon theophrasti [22] = assay: Phytotoxicity against Abutilon theophrasti assessed as visual injury at 4.0 kg/ha growth rate treated post-emergence by greenhouse test; type: functional
Avena fatua [23] = assay: Phytotoxicity against Avena fatua assessed as visual injury at 1.0 kg/ha growth rate treated post-emergence by greenhouse test; type: functional
Abutilon theophrasti [24] = assay: Phytotoxicity against Abutilon theophrasti assessed as visual injury at 2.0 kg/ha growth rate treated pre-emergence by greenhouse test; type: functional
Avena fatua [25] = assay: Phytotoxicity against Avena fatua assessed as visual injury at 2.0 kg/ha growth rate treated pre-emergence by greenhouse test; type: functional
Amaranthus retroflexus [26] = assay: Phytotoxicity against Amaranthus retroflexus assessed as visual injury at 4.0 kg/ha growth rate treated pre-emergence by greenhouse test; type: functional
Helianthus annuus [27] = assay: Phytotoxicity against Helianthus annuus assessed as visual injury at 4.0 kg/ha growth rate treated pre-emergence by greenhouse test; type: functional
Setaria faberi [28] = assay: Phytotoxicity against Setaria faberi assessed as visual injury at 0.5 kg/ha growth rate treated pre-emergence by greenhouse test; type: functional
Avena fatua [29] = assay: Phytotoxicity against Avena fatua assessed as visual injury at 2.0 kg/ha growth rate treated post-emergence by greenhouse test; type: functional
Alopecurus myosuroides [30] = assay: Phytotoxicity against Alopecurus myosuroides assessed as visual injury at 4.0 kg/ha growth rate treated pre-emergence by greenhouse test; type: functional
Echinochloa crus-galli [31] = assay: Phytotoxicity against Echinochloa crusgalli assessed as visual injury at 2.0 kg/ha growth rate treated post-emergence by greenhouse test; type: functional
Avena fatua [32] = assay: Phytotoxicity against Avena fatua assessed as visual injury at 0.5 kg/ha growth rate treated post-emergence by greenhouse test; type: functional
Setaria faberi [33] = assay: Phytotoxicity against Setaria faberi assessed as visual injury at 4.0 kg/ha growth rate treated pre-emergence by greenhouse test; type: functional
Abutilon theophrasti [34] = assay: Phytotoxicity against Abutilon theophrasti assessed as visual injury at 1.0 kg/ha growth rate treated post-emergence by greenhouse test; type: functional
Echinochloa crus-galli [35] = assay: Phytotoxicity against Echinochloa crusgalli assessed as visual injury at 4.0 kg/ha growth rate treated pre-emergence by greenhouse test; type: functional
Ipomoea hederacea [36] = assay: Phytotoxicity against Ipomoea hederacea assessed as visual injury at 2.0 kg/ha growth rate treated post-emergence by greenhouse test; type: functional
Arabidopsis thaliana [37] = assay: Metabolite reversal in Arabidopsis thaliana assessed as root growth inhibition in presence of guanine; type: functional, organism-based
Avena fatua [38] = assay: Phytotoxicity against Avena fatua assessed as visual injury at 4.0 kg/ha growth rate treated post-emergence by greenhouse test; type: functional
Helianthus annuus [39] = assay: Phytotoxicity against Helianthus annuus assessed as visual injury at 0.5 kg/ha growth rate treated pre-emergence by greenhouse test; type: functional
Helianthus annuus [40] = assay: Phytotoxicity against Helianthus annuus assessed as visual injury at 2.0 kg/ha growth rate treated pre-emergence by greenhouse test; type: functional
Alopecurus myosuroides [41] = assay: Phytotoxicity against Alopecurus myosuroides assessed as visual injury at 1.0 kg/ha growth rate treated pre-emergence by greenhouse test; type: functional
Amaranthus retroflexus [42] = assay: Phytotoxicity against Amaranthus retroflexus assessed as visual injury at 0.5 kg/ha growth rate treated pre-emergence by greenhouse test; type: functional
Abutilon theophrasti [43] = assay: Phytotoxicity against Abutilon theophrasti assessed as visual injury at 0.5 kg/ha growth rate treated pre-emergence by greenhouse test; type: functional
Setaria faberi [44] = assay: Phytotoxicity against Setaria faberi assessed as visual injury at 2.0 kg/ha growth rate treated pre-emergence by greenhouse test; type: functional
Echinochloa crus-galli [45] = assay: Phytotoxicity against Echinochloa crusgalli assessed as visual injury at 2.0 kg/ha growth rate treated pre-emergence by greenhouse test; type: functional
Alopecurus myosuroides [46] = assay: Phytotoxicity against Alopecurus myosuroides assessed as visual injury at 2.0 kg/ha growth rate treated post-emergence by greenhouse test; type: functional
Arabidopsis thaliana [47] = assay: Metabolite reversal in Arabidopsis thaliana assessed as root growth inhibition in presence of adenine; type: functional, organism-based
Setaria faberi [48] = assay: Phytotoxicity against Setaria faberi assessed as visual injury at 1.0 kg/ha growth rate treated post-emergence by greenhouse test; type: functional
Helianthus annuus [49] = assay: Phytotoxicity against Helianthus annuus assessed as visual injury at 0.5 kg/ha growth rate treated post-emergence by greenhouse test; type: functional
Echinochloa crus-galli [50] = assay: Phytotoxicity against Echinochloa crusgalli assessed as visual injury at 0.5 kg/ha growth rate treated pre-emergence by greenhouse test; type: functional
Helianthus annuus [51] = assay: Phytotoxicity against Helianthus annuus assessed as visual injury at 4.0 kg/ha growth rate treated post-emergence by greenhouse test; type: functional
Alopecurus myosuroides [52] = assay: Phytotoxicity against Alopecurus myosuroides assessed as visual injury at 2.0 kg/ha growth rate treated pre-emergence by greenhouse test; type: functional
Ipomoea hederacea [53] = assay: Phytotoxicity against Ipomoea hederacea assessed as visual injury at 0.5 kg/ha growth rate treated post-emergence by greenhouse test; type: functional
Ipomoea hederacea [54] = assay: Phytotoxicity against Ipomoea hederacea assessed as visual injury at 4.0 kg/ha growth rate treated post-emergence by greenhouse test; type: functional
Setaria faberi [55] = assay: Phytotoxicity against Setaria faberi assessed as visual injury at 4.0 kg/ha growth rate treated post-emergence by greenhouse test; type: functional
Ipomoea hederacea [56] = assay: Phytotoxicity against Ipomoea hederacea assessed as visual injury at 0.5 kg/ha growth rate treated pre-emergence by greenhouse test; type: functional
Setaria faberi [57] = assay: Phytotoxicity against Setaria faberi assessed as visual injury at 2.0 kg/ha growth rate treated post-emergence by greenhouse test; type: functional
Alopecurus myosuroides [58] = assay: Phytotoxicity against Alopecurus myosuroides assessed as visual injury at 0.5 kg/ha growth rate treated pre-emergence by greenhouse test; type: functional
Alopecurus myosuroides [59] = assay: Phytotoxicity against Alopecurus myosuroides assessed as visual injury at 1.0 kg/ha growth rate treated post-emergence by greenhouse test; type: functional
Amaranthus retroflexus [60] = assay: Phytotoxicity against Amaranthus retroflexus assessed as visual injury at 0.5 kg/ha growth rate treated post-emergence by greenhouse test; type: functional
Echinochloa crus-galli [61] = assay: Phytotoxicity against Echinochloa crusgalli assessed as visual injury at 1.0 kg/ha growth rate treated post-emergence by greenhouse test; type: functional
Alopecurus myosuroides [62] = assay: Phytotoxicity against Alopecurus myosuroides assessed as visual injury at 4.0 kg/ha growth rate treated post-emergence by greenhouse test; type: functional
Abutilon theophrasti [63] = assay: Phytotoxicity against Abutilon theophrasti assessed as visual injury at 4.0 kg/ha growth rate treated pre-emergence by greenhouse test; type: functional
Helianthus annuus [64] = assay: Phytotoxicity against Helianthus annuus assessed as visual injury at 2.0 kg/ha growth rate treated post-emergence by greenhouse test; type: functional
Echinochloa crus-galli [65] = assay: Phytotoxicity against Echinochloa crusgalli assessed as visual injury at 1.0 kg/ha growth rate treated pre-emergence by greenhouse test; type: functional
Echinochloa crus-galli [66] = assay: Phytotoxicity against Echinochloa crusgalli assessed as visual injury at 4.0 kg/ha growth rate treated post-emergence by greenhouse test; type: functional
Avena fatua [67] = assay: Phytotoxicity against Avena fatua assessed as visual injury at 4.0 kg/ha growth rate treated pre-emergence by greenhouse test; type: functional
Abutilon theophrasti [68] = assay: Phytotoxicity against Abutilon theophrasti assessed as visual injury at 1.0 kg/ha growth rate treated pre-emergence by greenhouse test; type: functional
Ipomoea hederacea [69] = assay: Phytotoxicity against Ipomoea hederacea assessed as visual injury at 1.0 kg/ha growth rate treated post-emergence by greenhouse test; type: functional
Setaria faberi [70] = assay: Phytotoxicity against Setaria faberi assessed as visual injury at 0.5 kg/ha growth rate treated post-emergence by greenhouse test; type: functional
BMS = assay: as §2; type: cell-based
[71] = Arabidopsis thaliana, read-out: I50

## O=c1[nH]ncn1[C@@H]1O[C@H](COP(=O)(O)O)[C@@H](O)[C@H]1O [PHOSPHORIBOFURANOSYL TRIAZOLONE]
Oryctolagus cuniculus; TDE = time-dependent effect
  Activity: tde
[1]
  IC50: 180 nM
[2]
  IC50: 980 nM

## O=c1[nH]ncn1[C@@H]1O[C@H](CO)[C@@H](O)[C@H]1O
Avena fatua [3]
  Activity: 0%
Ipomoea hederacea [4]
  Activity: 25%
Alopecurus myosuroides [5]
  Activity: 40%
Ipomoea hederacea [6]
  Activity: 40%
Avena fatua [7]
  Activity: 0%
Abutilon theophrasti [8]
  Activity: 85%
Arabidopsis thaliana [9]
  I50: 2.5 ppm
Arabidopsis thaliana [9]; [71]
  IC50: 11500 nM
Amaranthus retroflexus [10]
  Activity: 50%
Amaranthus retroflexus [11]
  Activity: 0%
Amaranthus retroflexus [12]
  Activity: 0%
Abutilon theophrasti [13]
  Activity: 80%
Helianthus annuus [14]
  Activity: 100%
Setaria faberi [15]
  Activity: 0%
Helianthus annuus [16]
  Activity: 10%
Echinochloa crus-galli [17]
  Activity: 70%
Arabidopsis thaliana [18]
  I50: 0.04 ppm
Arabidopsis thaliana [18]; [71]
  IC50: 200 nM
Ipomoea hederacea [19]
  Activity: 40%
Amaranthus retroflexus [20]
  Activity: 70%
Amaranthus retroflexus [21]
  Activity: 50%
Abutilon theophrasti [22]
  Activity: 80%
Avena fatua [23]
  Activity: 60%
Abutilon theophrasti [24]
  Activity: 30%
Avena fatua [25]
  Activity: 0%
Amaranthus retroflexus [26]
  Activity: 0%
Helianthus annuus [27]
  Activity: 60%
Setaria faberi [28]
  Activity: 0%
Avena fatua [29]
  Activity: 70%
Alopecurus myosuroides [30]
  Activity: 40%
Echinochloa crus-galli [31]
  Activity: 85%
Avena fatua [32]
  Activity: 50%
Setaria faberi [33]
  Activity: 0%
Abutilon theophrasti [34]
  Activity: 70%
Echinochloa crus-galli [35]
  Activity: 0%
Ipomoea hederacea [36]
  Activity: 80%
Arabidopsis thaliana [37]
  Activity: inactive
Avena fatua [38]
  Activity: 60%
Helianthus annuus [39]
  Activity: 0%
Helianthus annuus [40]
  Activity: 20%
Alopecurus myosuroides [41]
  Activity: 30%
Amaranthus retroflexus [42]
  Activity: 0%
Abutilon theophrasti [43]
  Activity: 15%
Setaria faberi [44]
  Activity: 0%
Echinochloa crus-galli [45]
  Activity: 0%
Alopecurus myosuroides [46]
  Activity: 70%
Arabidopsis thaliana [47]
  I50: 1.8 ppm
Arabidopsis thaliana [47]; [71]
  IC50: 8300 nM
Setaria faberi [48]
  Activity: 70%
Helianthus annuus [49]
  Activity: 90%
Echinochloa crus-galli [50]
  Activity: 0%
Helianthus annuus [51]
  Activity: 95%
Oryctolagus cuniculus
  Activity: inactive
Alopecurus myosuroides [52]
  Activity: 35%
Ipomoea hederacea [53]
  Activity: 75%
Ipomoea hederacea [54]
  Activity: 90%
Setaria faberi [55]
  Activity: 85%
Ipomoea hederacea [56]
  Activity: 15%
Setaria faberi [57]
  Activity: 60%
Alopecurus myosuroides [58]
  Activity: 0%
Alopecurus myosuroides [59]
  Activity: 70%
Amaranthus retroflexus [60]
  Activity: 0%
Echinochloa crus-galli [61]
  Activity: 85%
Alopecurus myosuroides [62]
  Activity: 80%
Abutilon theophrasti [63]
  Activity: 65%
Helianthus annuus [64]
  Activity: 95%
Echinochloa crus-galli [65]
  Activity: 0%
Echinochloa crus-galli [66]
  Activity: 90%
Avena fatua [67]
  Activity: 0%
Abutilon theophrasti [68]
  Activity: 30%
Ipomoea hederacea [69]
  Activity: 80%
Setaria faberi [70]
  Activity: 50%
BMS
  Activity: inactive

## O=C1NC(=O)[C@@]2(N1)O[C@H](COP(=O)(O)O)[C@@H](O)[C@H]2O
Oryctolagus cuniculus; TDE = time-dependent effect
  Activity: tde
BMS; TDE = time-dependent effect
  Activity: tde
